Measurements: patent publication US9220725B2, “Cationic latex as a carrier for bioactive ingredients and methods for making and using the same” (priority 2006, dated 2015)
Like-named read-outs stand apart in the source and are kept apart here.

Legend:
[1] = Solubility of additives used in polymerization; format: physicochemical
fungal species [2] = assay: 30-III fungal test on 1"X1" chip of dried latex, growth observed after 7 days; format: cell-based; conditions: 7 day incubation
Experimental: The results observed in the G-21 study were also duplicated in a shorter (7 day incubation) fungal study (referred to herein as 30-III).
The 30-III fungal test was based on making a 1″X1″ chip of the dried latex and inoculating the fungal species directly on to the sample and then observing its growth after 7 days. This is not as rigorous a test as the G-21 test, but gave a quick indication of the efficacy of the additives.

fungal species [3] = assay: ASTM D-3273 on coated paper, increased coating thickness, spores in humidity chamber, 28 days; format: cell-based
Experimental: A second round of testing was performed using an increased coating thickness to ensure full coverage of the paper surface. The second round of testing of the coated paper samples were tested according to ASTM D-3273. In this study, the duration remained the same (28 days), but the fungal species were not directly inoculated on the surface. Rather, they were maintained in the humidity chamber as spores that would then land on the surface of the coated paper as in a real world example. The results of this study are outlined in FIG. 3.

[4] = Stability of additive during polymerization; format: physicochemical; conditions: incorporated in relatively high amounts
From the text: Ideally, the materials are substantially unreactive during the polymerization conditions, so they are not degraded during polymerization. In some embodiments, low levels of additive might be observed, whether due to degradation, or difficulty in extraction from the polymer latex. In any case, retention of the additive in the latex leads to retention of antifungal properties in the finished paper.
The polymerization temperature was investigated as a potential contributor to degradation, and it was kept as low as was feasible (typically <70° C.). The samples were stripped at the end of polymerization to the desired solids content.

Row | Compound | Solubility ([1]; in monomer where given) | antifungal performance (fungal species [2]) | antifungal performance (fungal species [3]) | Solubility [1] | also measured
1 | [Na+].[O-]c1ccccc1-c1ccccc1 [Microban P2, Sodium orthophenyl phenate] | – | – | – | – | Solubility ([1]; in water): soluble
2 | Oc1cc(Cl)ccc1Oc1ccc(Cl)cc1Cl [Triclosan, Chlorodiphenyl ether, reference compound] | Solid. Fairly | – | – | – | –
3 | Cc1ccc(S(=O)(=O)C(I)I)cc1 [Amical AF, Diiodomethyltoluyl sulfone] | Limited | some fungal inhibition | effective | – | degradation during polymerization [4]: degraded
4 | Zinc pyrithione [Microban Z01] | Insoluble in | performed well | did not perform well | – | –
5 | CC(C)(C)C(O)(CCc1ccc(Cl)cc1)Cn1cncn1 (centres unmarked) [Microban TZ, Tebuconazole] | – | – | – | Fairly soluble | –
6 | CCCC1COC(Cn2cncn2)(c2ccc(Cl)cc2Cl)O1 (centres unmarked) [Microban PZ, Propiconazole] | – | – | – | Fairly soluble | –
